Source: the kinase profiling compilation of Christmann-Franck et al. (2016)
One block for each compound: values may come before it.

Columns and labels:
Assay in all cases: radiometric filter-binding kinase assay
[1] = target: ABL1 (human) (UniProt P00519)
[2] = target: CDK9 CCNT1 (human) (UniProt P50750+O60563)
[3] = target: CSNK1G2 (human) (UniProt P78368)
[4] = target: DDR2 (human) (UniProt Q16832)
[5] = target: EIF2AK3 (human) (UniProt Q9NZJ5)
[6] = target: IRAK1 (human) (UniProt P51617)
[7] = test system: OXSR1 (human), O95747 [T185E]
Sequence of OXSR1 (human), O95747 [T185E] (O95747 whole entry T185E, looked up): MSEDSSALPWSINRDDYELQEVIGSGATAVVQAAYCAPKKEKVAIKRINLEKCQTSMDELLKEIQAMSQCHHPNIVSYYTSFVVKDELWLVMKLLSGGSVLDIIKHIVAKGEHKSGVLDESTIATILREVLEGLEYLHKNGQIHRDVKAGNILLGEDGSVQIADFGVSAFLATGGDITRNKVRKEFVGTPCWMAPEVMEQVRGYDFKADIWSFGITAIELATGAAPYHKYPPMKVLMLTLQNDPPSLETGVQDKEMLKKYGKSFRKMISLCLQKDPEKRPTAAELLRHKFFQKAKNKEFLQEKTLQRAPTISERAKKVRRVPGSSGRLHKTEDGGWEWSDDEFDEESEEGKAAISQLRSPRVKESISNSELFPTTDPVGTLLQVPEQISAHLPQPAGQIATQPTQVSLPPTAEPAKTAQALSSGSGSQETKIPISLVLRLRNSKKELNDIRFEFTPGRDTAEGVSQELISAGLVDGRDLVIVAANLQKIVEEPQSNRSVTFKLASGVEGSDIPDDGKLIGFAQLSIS

[8] = target: PLK1 (human) (UniProt P53350)
[9] = target: PRKCG (human) (UniProt P05129)
[10] = target: PTK6 (human) (UniProt Q13882)
[11] = target: SIK2 (human) (UniProt Q9H0K1)
[12] = target: SIK3 (human) (UniProt Q9Y2K2)
[13] = target: STK16 (human) (UniProt O75716)
[14] = target: STK24 (human) (UniProt Q9Y6E0)
Sequence of STK24 (human) (Q9Y6E0 whole entry, looked up): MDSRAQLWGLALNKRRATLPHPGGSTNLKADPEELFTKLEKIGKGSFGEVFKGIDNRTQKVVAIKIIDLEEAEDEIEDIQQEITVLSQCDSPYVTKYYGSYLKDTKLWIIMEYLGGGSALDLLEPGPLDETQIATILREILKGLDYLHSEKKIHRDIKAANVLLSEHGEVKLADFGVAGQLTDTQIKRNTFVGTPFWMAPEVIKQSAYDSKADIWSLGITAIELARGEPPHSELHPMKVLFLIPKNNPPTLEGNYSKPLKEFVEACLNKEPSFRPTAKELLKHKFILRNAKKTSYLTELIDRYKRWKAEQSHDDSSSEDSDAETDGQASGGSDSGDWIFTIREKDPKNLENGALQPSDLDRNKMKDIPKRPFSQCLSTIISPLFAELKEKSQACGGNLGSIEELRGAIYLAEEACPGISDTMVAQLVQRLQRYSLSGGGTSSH

[15] = target: STK33 (human) (UniProt Q9BYT3)
Sequence of STK33 (human) (Q9BYT3 whole entry, looked up): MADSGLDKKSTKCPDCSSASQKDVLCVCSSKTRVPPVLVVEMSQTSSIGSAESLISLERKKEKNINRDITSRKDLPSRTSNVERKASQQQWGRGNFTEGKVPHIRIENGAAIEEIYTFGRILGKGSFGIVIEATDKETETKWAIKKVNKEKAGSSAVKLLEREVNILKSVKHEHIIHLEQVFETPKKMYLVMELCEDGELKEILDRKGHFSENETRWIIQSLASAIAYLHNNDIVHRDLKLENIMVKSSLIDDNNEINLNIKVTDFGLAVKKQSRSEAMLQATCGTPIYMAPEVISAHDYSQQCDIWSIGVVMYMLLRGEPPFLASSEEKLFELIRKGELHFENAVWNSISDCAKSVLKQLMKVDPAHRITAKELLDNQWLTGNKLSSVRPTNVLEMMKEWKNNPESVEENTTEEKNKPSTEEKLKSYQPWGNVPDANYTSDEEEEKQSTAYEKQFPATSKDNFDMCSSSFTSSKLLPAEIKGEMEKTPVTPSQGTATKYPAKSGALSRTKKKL

[16] = target: TEK (human) (UniProt Q02763)
[17] = target: TESK1 (human) (UniProt Q15569)
[18] = target: TLK1 (human) (UniProt Q9UKI8)
[19] = target: TSSK1B (human) (UniProt Q9BXA7)
[20] = target: TTBK1 (human) (UniProt Q5TCY1)
Sequence of TTBK1 (human) (Q5TCY1 whole entry, looked up): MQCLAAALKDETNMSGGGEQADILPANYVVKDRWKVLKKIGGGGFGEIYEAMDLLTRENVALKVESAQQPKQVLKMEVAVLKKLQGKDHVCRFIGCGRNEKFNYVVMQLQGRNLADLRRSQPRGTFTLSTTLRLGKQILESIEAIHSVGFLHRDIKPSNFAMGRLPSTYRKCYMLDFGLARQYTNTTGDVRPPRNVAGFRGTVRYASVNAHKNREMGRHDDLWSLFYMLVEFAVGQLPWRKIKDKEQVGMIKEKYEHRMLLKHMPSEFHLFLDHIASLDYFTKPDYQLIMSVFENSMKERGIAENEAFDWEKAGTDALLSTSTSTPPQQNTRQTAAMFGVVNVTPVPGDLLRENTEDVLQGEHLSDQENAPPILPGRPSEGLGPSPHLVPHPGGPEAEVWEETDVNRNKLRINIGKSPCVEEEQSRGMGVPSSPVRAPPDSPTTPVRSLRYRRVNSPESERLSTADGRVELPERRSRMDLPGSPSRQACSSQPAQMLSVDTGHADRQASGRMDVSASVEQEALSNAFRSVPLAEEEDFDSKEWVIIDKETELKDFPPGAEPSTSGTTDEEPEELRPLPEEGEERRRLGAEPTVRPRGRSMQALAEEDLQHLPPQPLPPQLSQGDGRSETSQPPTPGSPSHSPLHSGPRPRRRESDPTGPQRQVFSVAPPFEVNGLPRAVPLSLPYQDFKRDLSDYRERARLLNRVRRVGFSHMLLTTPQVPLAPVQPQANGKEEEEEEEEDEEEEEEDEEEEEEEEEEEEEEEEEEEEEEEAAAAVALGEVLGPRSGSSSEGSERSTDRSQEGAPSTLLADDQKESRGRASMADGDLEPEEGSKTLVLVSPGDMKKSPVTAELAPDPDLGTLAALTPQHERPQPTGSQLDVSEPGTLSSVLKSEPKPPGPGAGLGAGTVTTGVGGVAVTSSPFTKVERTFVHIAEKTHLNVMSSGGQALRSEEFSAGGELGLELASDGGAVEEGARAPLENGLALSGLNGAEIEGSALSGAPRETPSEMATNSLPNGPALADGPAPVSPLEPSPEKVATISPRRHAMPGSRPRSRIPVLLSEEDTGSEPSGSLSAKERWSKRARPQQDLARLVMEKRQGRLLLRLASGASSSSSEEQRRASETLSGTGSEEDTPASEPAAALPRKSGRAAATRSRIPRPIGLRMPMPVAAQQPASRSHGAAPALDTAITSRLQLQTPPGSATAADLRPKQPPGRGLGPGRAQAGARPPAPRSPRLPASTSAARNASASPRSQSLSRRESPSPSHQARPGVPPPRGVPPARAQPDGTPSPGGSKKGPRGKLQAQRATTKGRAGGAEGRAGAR

[21] = target: ULK1 (human) (UniProt O75385)
[22] = target: ULK2 (human) (UniProt Q8IYT8)
[23] = target: ZAP70 (human) (UniProt P43403)
[24] = target: WNK1 (human) (UniProt Q9H4A3)

Sequence of CDK9 CCNT1 (human) (O60563 whole entry, looked up): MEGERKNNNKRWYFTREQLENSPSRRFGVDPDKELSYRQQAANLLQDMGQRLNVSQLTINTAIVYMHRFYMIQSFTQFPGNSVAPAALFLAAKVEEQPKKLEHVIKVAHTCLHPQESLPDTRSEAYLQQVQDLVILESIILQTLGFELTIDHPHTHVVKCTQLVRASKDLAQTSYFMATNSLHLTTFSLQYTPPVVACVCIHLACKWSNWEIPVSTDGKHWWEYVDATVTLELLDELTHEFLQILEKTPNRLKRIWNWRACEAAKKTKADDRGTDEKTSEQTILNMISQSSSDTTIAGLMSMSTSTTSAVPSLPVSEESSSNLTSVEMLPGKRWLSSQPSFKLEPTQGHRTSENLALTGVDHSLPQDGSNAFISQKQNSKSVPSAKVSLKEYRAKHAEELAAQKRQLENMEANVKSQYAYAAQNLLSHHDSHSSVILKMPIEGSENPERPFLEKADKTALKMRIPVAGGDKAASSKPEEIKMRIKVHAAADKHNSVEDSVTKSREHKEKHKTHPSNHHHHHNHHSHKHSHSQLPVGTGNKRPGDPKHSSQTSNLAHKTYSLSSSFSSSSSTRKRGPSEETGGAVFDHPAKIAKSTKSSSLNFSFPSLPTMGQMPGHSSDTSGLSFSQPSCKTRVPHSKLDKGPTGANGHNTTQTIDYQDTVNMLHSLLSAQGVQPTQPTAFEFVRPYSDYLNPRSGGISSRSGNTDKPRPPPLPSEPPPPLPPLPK
Sequence of CDK9 CCNT1 (human) (P50750 whole entry, looked up): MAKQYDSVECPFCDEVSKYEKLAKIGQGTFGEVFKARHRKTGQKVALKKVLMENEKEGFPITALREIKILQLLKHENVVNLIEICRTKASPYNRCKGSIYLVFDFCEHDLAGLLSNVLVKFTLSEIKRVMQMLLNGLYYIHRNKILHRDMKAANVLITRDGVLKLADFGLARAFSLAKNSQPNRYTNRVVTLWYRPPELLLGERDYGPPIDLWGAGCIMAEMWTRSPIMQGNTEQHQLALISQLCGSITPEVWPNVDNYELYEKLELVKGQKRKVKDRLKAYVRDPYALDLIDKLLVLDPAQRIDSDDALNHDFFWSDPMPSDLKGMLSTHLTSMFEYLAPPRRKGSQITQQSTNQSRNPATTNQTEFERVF
Sequence of EIF2AK3 (human) (Q9NZJ5 whole entry, looked up): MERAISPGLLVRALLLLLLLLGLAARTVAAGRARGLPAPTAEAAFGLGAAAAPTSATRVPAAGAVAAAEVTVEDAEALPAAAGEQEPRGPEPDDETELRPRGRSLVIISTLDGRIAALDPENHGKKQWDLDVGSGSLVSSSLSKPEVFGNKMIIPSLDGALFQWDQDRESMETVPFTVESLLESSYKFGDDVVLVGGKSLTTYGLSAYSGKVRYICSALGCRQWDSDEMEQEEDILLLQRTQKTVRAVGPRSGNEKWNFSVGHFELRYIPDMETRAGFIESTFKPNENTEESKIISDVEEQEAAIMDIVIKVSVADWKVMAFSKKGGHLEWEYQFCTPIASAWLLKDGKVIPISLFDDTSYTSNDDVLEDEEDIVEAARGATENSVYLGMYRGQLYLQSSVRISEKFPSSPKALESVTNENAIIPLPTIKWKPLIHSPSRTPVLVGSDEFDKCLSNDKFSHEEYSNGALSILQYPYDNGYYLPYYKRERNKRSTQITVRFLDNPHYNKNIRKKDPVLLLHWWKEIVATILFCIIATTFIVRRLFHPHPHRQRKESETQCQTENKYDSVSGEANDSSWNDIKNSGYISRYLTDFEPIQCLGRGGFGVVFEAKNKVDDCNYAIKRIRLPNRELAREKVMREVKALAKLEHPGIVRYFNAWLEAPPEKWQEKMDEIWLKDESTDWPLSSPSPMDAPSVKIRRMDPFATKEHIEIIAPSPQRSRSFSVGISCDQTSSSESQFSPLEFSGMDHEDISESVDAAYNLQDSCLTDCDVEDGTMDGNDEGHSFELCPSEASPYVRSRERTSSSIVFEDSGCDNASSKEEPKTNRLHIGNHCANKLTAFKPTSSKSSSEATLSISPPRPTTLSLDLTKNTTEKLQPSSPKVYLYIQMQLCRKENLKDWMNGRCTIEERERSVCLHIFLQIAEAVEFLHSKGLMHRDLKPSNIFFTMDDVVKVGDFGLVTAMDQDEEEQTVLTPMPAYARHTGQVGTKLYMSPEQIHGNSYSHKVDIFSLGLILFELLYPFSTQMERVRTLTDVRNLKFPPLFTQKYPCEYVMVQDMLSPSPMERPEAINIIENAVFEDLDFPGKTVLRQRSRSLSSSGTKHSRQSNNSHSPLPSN

residual activity ([1]; compound 0.1 µM): 97%
residual activity ([1]; compound 1.0 µM): 86%
residual activity ([2]; compound 0.1 µM): 85%
residual activity ([2]; compound 1.0 µM): 80%
residual activity ([3]; compound 0.1 µM): 109%
residual activity ([3]; compound 1.0 µM): 87%
residual activity ([4]; compound 0.1 µM): 106%
residual activity ([4]; compound 1.0 µM): 97%
residual activity ([5]; compound 0.1 µM): 103%
residual activity ([5]; compound 1.0 µM): 93%
residual activity ([6]; compound 0.1 µM): 93%
residual activity ([6]; compound 1.0 µM): 63%
residual activity ([7]; compound 0.1 µM): 96%
residual activity ([7]; compound 1.0 µM): 91%
residual activity ([8]; compound 0.1 µM): 98%
residual activity ([8]; compound 1.0 µM): 94%
residual activity ([9]; compound 0.1 µM): 92%
residual activity ([9]; compound 1.0 µM): 91%
residual activity ([10]; compound 1.0 µM): 75%
residual activity ([11]; compound 0.1 µM): 100%
residual activity ([11]; compound 1.0 µM): 105%
residual activity ([12]; compound 0.1 µM): 88%
residual activity ([12]; compound 1.0 µM): 79%
residual activity ([13]; compound 0.1 µM): 110%
residual activity ([13]; compound 1.0 µM): 101%
residual activity ([14]; compound 0.1 µM): 85%
residual activity ([14]; compound 1.0 µM): 82%
residual activity ([15]; compound 0.1 µM): 99%
residual activity ([15]; compound 1.0 µM): 90%
residual activity ([16]; compound 0.1 µM): 105%
residual activity ([16]; compound 1.0 µM): 98%
residual activity ([17]; compound 0.1 µM): 89%
residual activity ([17]; compound 1.0 µM): 93%
residual activity ([18]; compound 0.1 µM): 99%
residual activity ([18]; compound 1.0 µM): 100%
residual activity ([19]; compound 0.1 µM): 91%
residual activity ([19]; compound 1.0 µM): 86%
residual activity ([20]; compound 0.1 µM): 92%
residual activity ([20]; compound 1.0 µM): 83%
residual activity ([21]; compound 0.1 µM): 27%
residual activity ([21]; compound 1.0 µM): 67%
residual activity ([22]; compound 0.1 µM): 28%
residual activity ([22]; compound 1.0 µM): 69%
residual activity ([23]; compound 0.1 µM): 105%
Compound: Cc1cc(NC(=O)c2cccc(NC(=O)/C=C/CN(C)C)c2)ccc1Nc1nccc(-c2cccnc2)n1

residual activity ([1]; compound 0.1 µM): 77%
residual activity ([1]; compound 1.0 µM): 85%
residual activity ([2]; compound 0.1 µM): 22%
residual activity ([2]; compound 1.0 µM): 42%
residual activity ([3]; compound 0.1 µM): 88%
residual activity ([3]; compound 1.0 µM): 88%
residual activity ([4]; compound 0.1 µM): 89%
residual activity ([4]; compound 1.0 µM): 108%
residual activity ([5]; compound 0.1 µM): 90%
residual activity ([5]; compound 1.0 µM): 99%
residual activity ([6]; compound 0.1 µM): 26%
residual activity ([6]; compound 1.0 µM): 5%
residual activity ([7]; compound 0.1 µM): 99%
residual activity ([7]; compound 1.0 µM): 105%
residual activity ([8]; compound 0.1 µM): 91%
residual activity ([8]; compound 1.0 µM): 106%
residual activity ([9]; compound 0.1 µM): 96%
residual activity ([9]; compound 1.0 µM): 101%
residual activity ([10]; compound 0.1 µM): 81%
residual activity ([10]; compound 1.0 µM): 81%
residual activity ([11]; compound 0.1 µM): 78%
residual activity ([11]; compound 1.0 µM): 67%
residual activity ([12]; compound 0.1 µM): 81%
residual activity ([12]; compound 1.0 µM): 64%
residual activity ([13]; compound 0.1 µM): 108%
residual activity ([13]; compound 1.0 µM): 103%
residual activity ([14]; compound 0.1 µM): 94%
residual activity ([14]; compound 1.0 µM): 93%
residual activity ([15]; compound 0.1 µM): 92%
residual activity ([15]; compound 1.0 µM): 91%
residual activity ([16]; compound 0.1 µM): 94%
residual activity ([16]; compound 1.0 µM): 84%
residual activity ([17]; compound 0.1 µM): 90%
residual activity ([17]; compound 1.0 µM): 98%
residual activity ([18]; compound 0.1 µM): 99%
residual activity ([18]; compound 1.0 µM): 98%
residual activity ([19]; compound 0.1 µM): 88%
residual activity ([19]; compound 1.0 µM): 101%
residual activity ([20]; compound 0.1 µM): 88%
residual activity ([20]; compound 1.0 µM): 79%
residual activity ([21]; compound 0.1 µM): 37%
residual activity ([21]; compound 1.0 µM): 63%
residual activity ([22]; compound 0.1 µM): 50%
residual activity ([22]; compound 1.0 µM): 69%
residual activity ([24]; compound 0.1 µM): 103%
residual activity ([24]; compound 1.0 µM): 117%
residual activity ([23]; compound 0.1 µM): 82%
residual activity ([23]; compound 1.0 µM): 123%
Compound: CN(C)C/C=C/C(=O)Nc1cccc(C(=O)Nc2ccc(Nc3nccc(-c4cccnc4)n3)cc2)c1
